Data taken from ChEMBL document CHEMBL4145577, “Cytotoxic Anthracycline Metabolites from a Recombinant Streptomyces” (J Nat Prod, 2018).

Columns and labels:
MDA-MB-435 = assay: Cytotoxicity against human MDA-MB-435 cells after 48 hrs by MTT assay; format: functional, cell-based; conditions: MDA-MB-435, 48 h
NCI-H460 = assay: Cytotoxicity against human NCI-H460 cells after 48 hrs by MTT assay; format: functional, cell-based; conditions: NCI-H460, 48 h
MDA-MB-231 = assay: Cytotoxicity against human MDA-MB-231 cells after 48 hrs by MTT assay; format: functional, cell-based; conditions: MDA-MB-231, 48 h
HepG2 = assay: Cytotoxicity against human HepG2 cells after 48 hrs by MTT assay; format: functional, cell-based; conditions: HepG2, 48 h
MCF-10A = assay: Cytotoxicity against human MCF10A cells after 48 hrs by MTT assay; format: cell-based
HCT-116 = assay: Cytotoxicity against human HCT116 cells after 48 hrs by MTT assay; format: functional, cell-based; conditions: HCT-116, 48 h

Structure (SMILES)	IC50 (MDA-MB-435) [µM]	IC50 (NCI-H460) [µM]	IC50 (MDA-MB-231) [µM]	IC50 (HepG2) [µM]	IC50 (MCF-10A) [µM]	IC50 (HCT-116) [µM]
CC[C@@]1(O)C[C@H](O)c2c(O)c3c(c(O)c2[C@H]1C(=O)OC)C(=O)c1cccc(O)c1C3=O	9.2	10	13.2	13.5	7.1	9.6
CC[C@@]1(O)C[C@H](O[C@H]2CC[C@H](O[C@H]3C[C@H](O)[C@H](O[C@H]4CC[C@H](O)[C@H](C)O4)[C@H](C)O3)[C@H](C)O2)c2c(O)c3c(c(O)c2[C@H]1O)C(=O)c1cccc(O)c1C3=O	3.1	1.6	24.5	5.7	6.7	6.1
CC[C@@]1(O)C[C@H](O[C@H]2C[C@H](O)[C@H](O[C@H]3C[C@H](O)[C@H](O)[C@H](C)O3)[C@H](C)O2)c2c(O)c3c(c(O)c2[C@H]1O)C(=O)c1cccc(O)c1C3=O	–	0.6	10.2	2	2.5	13.2
CC[C@@]1(O)C[C@H](O[C@H]2CC[C@H](O[C@H]3CC[C@H](O[C@H]4CC[C@H](O)[C@H](C)O4)[C@H](C)O3)[C@H](C)O2)c2c(O)c3c(c(O)c2[C@H]1C(=O)OC)C(=O)c1cccc(O)c1C3=O	2.7	10	4.5	1.7	1.4	0.2
CC[C@]1(O)Cc2c(O)c3c(c(O)c2[C@@H](O[C@H]2C[C@H](O)[C@H](O[C@H]4C[C@H](O)[C@H](O[C@H]5CC[C@H](O)[C@H](C)O5)[C@H](C)O4)[C@H](C)O2)C1)C(=O)c1c(O)cccc1C3=O	6.2	0.9	> 50	11.3	16.9	3.1
CC[C@@]1(O)C[C@H](O[C@H]2C[C@H](O)[C@H](O[C@H]3C[C@H](O)[C@H](O[C@H]4C[C@H](O)[C@H](O)[C@H](C)O4)[C@H](C)O3)[C@H](C)O2)c2c(O)c3c(c(O)c2[C@H]1O)C(=O)c1cccc(O)c1C3=O	7	4.8	40.2	8	3.7	9.8
CC[C@@]1(O)C[C@H](O[C@H]2C[C@H](O)[C@H](O[C@H]3C[C@H](O)[C@H](O[C@H]4CCC(=O)[C@H](C)O4)[C@H](C)O3)[C@H](C)O2)c2c(O)c3c(c(O)c2[C@H]1O)C(=O)c1cccc(O)c1C3=O	5.6	0.38	5.4	0.9	2	1.4
CC[C@@]1(O)C[C@H](O[C@H]2C[C@H](O)[C@H](O[C@H]3C[C@H](O)[C@H](O[C@H]4CC[C@H](O)[C@H](C)O4)[C@H](C)O3)[C@H](C)O2)c2c(O)c3c(c(O)c2[C@H]1O)C(=O)c1cccc(O)c1C3=O	–	0.7	7.4	1.5	3.4	5
CC[C@@]1(O)C[C@H](O[C@H]2C[C@H](O)[C@H](O[C@H]3CC[C@H](O[C@H]4CC[C@H](O)[C@H](C)O4)[C@H](C)O3)[C@H](C)O2)c2c(O)c3c(c(O)c2[C@H]1O)C(=O)c1cccc(O)c1C3=O	11.7	1.3	10.4	5.5	5.2	32.8
CC[C@@]1(O)C[C@H](O[C@H]2CC[C@H](O[C@H]3C[C@H](O)[C@H](O[C@H]4CC[C@H](O)[C@H](C)O4)[C@H](C)O3)[C@H](C)O2)c2c(O)c3c(c(O)c2[C@H]1C(=O)OC)C(=O)c1cccc(O)c1C3=O	1.9	5.7	9.3	6.4	4.6	3.6
CC[C@@]1(O)C[C@H](O[C@H]2C[C@H](O)[C@H](O[C@H]3CC[C@H](O[C@H]4CC[C@H](OC5CC[C@H](O)[C@H](C)O5)[C@H](C)O4)[C@H](C)O3)[C@H](C)O2)c2c(O)c3c(c(O)c2[C@H]1O)C(=O)c1cccc(O)c1C3=O (stereo partly drawn)	37.9	2.2	10.1	8.5	5.7	7.2
CC[C@@]1(O)C[C@H](O[C@H]2C[C@H](O)[C@H](O[C@H]3CC[C@H](O[C@H]4C[C@H](O)[C@H](O)[C@H](C)O4)[C@H](C)O3)[C@H](C)O2)c2c(O)c3c(c(O)c2[C@H]1O)C(=O)c1cccc(O)c1C3=O	5.9	2.6	19.2	6.2	10.5	5.8
CC[C@]1(O)Cc2c(O)c3c(c(O)c2[C@@H](O[C@H]2C[C@H](O)[C@H](O[C@H]4CC[C@H](O[C@H]5CC[C@H](O)[C@H](C)O5)[C@H](C)O4)[C@H](C)O2)C1)C(=O)c1c(O)cccc1C3=O	4.2	5.4	> 50	8.6	2.2	0.3
CC[C@@]1(O)C[C@H](O[C@H]2CC[C@H](O[C@H]3C[C@H](O)[C@H](O[C@H]4CCC(=O)[C@H](C)O4)[C@H](C)O3)[C@H](C)O2)c2c(O)c3c(c(O)c2[C@H]1O)C(=O)c1cccc(O)c1C3=O	3.9	2.4	23.9	9.3	10.4	5.4
CC[C@@]1(O)CCc2c(O)c3c(c(O)c2[C@H]1O)C(=O)c1cccc(O)c1C3=O	5.7	7.3	10.9	13	11.9	6
COc1cccc2c1C(=O)c1c(O)c3c(c(O)c1C2=O)C[C@@](O)(C(=O)CO)C[C@@H]3O[C@H]1C[C@H](N)[C@@H](O)[C@H](C)O1 [EPIRUBICIN]	0.7	0.02	0.9	–	0.1	0.4
